Data as given in patent US20050282841A1 (priority 2004, published 2005).

Experiments:
Type in all cases: in vivo
Conditions in all cases: on tomatoes, wheat and vine crops
[1] = tested on: Late blight (Phytophthora infestans)
[2] = tested on: Septoria leaf spot (Septoria tritici); test: fungicidal effectiveness against Septoria leaf spot
[3] = tested on: Brown rust (Puccinia recondita); test: fungicidal effectiveness against Brown rust
[4] = tested on: Powdery mildew (Erisyphe araminis); test: fungicidal effectiveness against Powdery mildew

CO/C=C(/C(=O)OC(c1ccccc1)(c1cncnc1)c1ccc(Cl)cc1Cl)c1ccccc1Oc1cc(Oc2ccccc2C#N)ncn1 (racemic) [Example 1, (RS)-2,4-dichloro-α-(pyrimidin-5-yl)benzhydryl (E)-2-{2-[6-(2-cyanophenoxy)pyrimidin-4-yloxy]phenyl}-3-methoxyacrylate]
effective: effectiveness against fungal pathogen Late blight (Phytophthora infestans) [1] | effectiveness against fungal pathogen Septoria leaf spot (Septoria tritici) [2] | effectiveness against fungal pathogen Brown rust (Puccinia recondita) [3] | effectiveness against fungal pathogen Powdery mildew (Erisyphe araminis) [4]

CO/N=C(/C(=O)OC(Cn1cncn1)(c1ccc(Cl)cc1)C(C)C1CC1)c1ccccc1COc1ccccc1C (racemic) [Example 2, (2RS,3RS;2RS,3SR)-2-(4-chlorophenyl)-3-cyclopropyl-1-(1H-1,2,4-triazol-1-yl)butan-2-yl (E)-methoxyimino[α-(o-tolyloxy)-o-tolyl]acetate]
effective: effectiveness against fungal pathogen Late blight (Phytophthora infestans) [1] | effectiveness against fungal pathogen Septoria leaf spot (Septoria tritici) [2] | effectiveness against fungal pathogen Brown rust (Puccinia recondita) [3] | effectiveness against fungal pathogen Powdery mildew (Erisyphe araminis) [4]

CO/N=C(/C(=O)OC(CCc1ccc(Cl)cc1)(Cn1cncn1)C(C)(C)C)c1ccccc1CO/N=C(\C)c1cccc(C(F)(F)F)c1 (racemic) [Example 3, (RS)-1-p-chlorophenyl-4,4-dimethyl-3-(1H-1,2,4-triazol-1-ylmethyl)pentan-3-yl (E)-methoxyimino-{(E)-α-[1-(α,α,α-trifluoro-m-tolyl)ethylideneaminooxy]-o-tolyl}acetate]
effective: effectiveness against fungal pathogen Late blight (Phytophthora infestans) [1] | effectiveness against fungal pathogen Septoria leaf spot (Septoria tritici) [2] | effectiveness against fungal pathogen Brown rust (Puccinia recondita) [3] | effectiveness against fungal pathogen Powdery mildew (Erisyphe araminis) [4]
